Results taken from US10301256B2, “Sulfonamide and sulfinamide prodrugs of fumarates and their use in treating various diseases” (Alkermes Pharma Ireland Limited, priority 2014, dated 2019).
Counter-ions that a name gives are not always drawn.

Columns and labels:
[1] = Chemical stability of MMF prodrugs in pH 8 phosphate buffer; format: physicochemical; conditions: 50 mM buffer phosphate pH 8, 37° C., HPLC-UV, first-order decay
Protocol: Stock solutions of the compounds in acetonitrile or acetonitrile/MeOH were prepared at 0.05M. A 0.010 mL aliquot of the stock was spiked into 1 mL of 50 mM buffer phosphate pH 8 and incubated at 37° C. Typically, aliquots (0.010 mL) were sampled at different time points and immediately injected in the HPLC with UV detection (211 nm). The peak areas corresponding to the compounds were plotted against time and the data were fitted to a first-order mono-exponential decay where the rate constant and the half-life were determined from the slope (Table 2).

[2] = Physical stability in crystalline form by thermogravimetric analysis (TGA); format: physicochemical; conditions: 55° C.; for weight loss vs time (TGA): crystalline form
Protocol: The physical stability of compounds of the present invention and dimethyl fumarate (DMF) were measured via thermogravimetric analysis (TGA).

SMILES	pH 8 (t½, min) [1] [min]	weight loss vs time (TGA) [2]	weight loss (TGA) ([2]; in less than 2 hours) [%]
COC(=O)/C=C/C(=O)OCCN(C)S(C)(=O)=O [Compound 1, Methyl (2-(N-methylmethylsulfonamido)ethyl) fumarate]	187	no change	
COC(=O)/C=C/C(=O)OCCNS(C)(=O)=O [Compound 2, Methyl (2-(methylsulfonamido)ethyl) fumarate]	143.5	no change	
COC(=O)/C=C/C(=O)OCCN1CCCS1(=O)=O [Compound 6, 2-(1,1-Dioxidoisothiazolidin-2-yl)ethyl methyl fumarate]	202		
COC(=O)/C=C/C(=O)OC [DMF, dimethyl fumarate, reference compound]			~100
